Holding throughout (assay type): cell-based
The subject of series [1] is HeLa cells. The series is described as follows: Toxicity study of CB and cholesterol tag (CellTiter-Blue). To be noted: FIG. 14, HeLa cells. The method, then:
Cytotoxicity of the tag was evaluated on HeLa cells. Briefly, cells were seeded in 96-well plates at 3,000 cells/well. CB, the tag, or tagged protein (BSA) was added at a series of concentrations from 10 μM to 3.3 nM. Untreated cells were used as control. After 48-h incubation, 10 μl of CellTiter-Blue reagent (Promega) was added to the wells and the culture was incubated for another 1 h. Cell viability was examined on a microplate reader (Tecan) at ex/em=560/590 nm and the toxicity was analyzed according to the manufacturer's protocol.

For series [2], the system named is HeLa cells. The series is described as follows: Cyt c delivery and intracellular distribution (fluorescence imaging). The text has this: For a proof-of-principle application in therapeutic protein delivery, we selected cytochrome c (Cyt c), an intracellular signaling protein for apoptosis, as a model cargo molecule. To track Cyt c delivery and intracellular distribution, it was labeled with a fluorescent dye (AF488, green). Cell nucleic were counterstained by Hoechst 33258 (blue). […] This is expected because Cyt c is a highly water-soluble macromolecule (m.w. ˜12 kDa) that cannot diffuse through the cell membrane by itself. Instead, a minute amount of Cyt c was uptaken by cells but trapped in endosomes/lysosomes (not shown). […] This study proves the feasibility and potential of specific targeting of certain cell signaling nodes inside cells with protein drugs.
(§1) HeLa cells were seeded onto glass-bottom dishes and cultured overnight. The cells were treated with cyt c (tagged or untagged) of various concentrations in culture media for 4 h, washed, and cultured in fresh media for another 48 h. Cell viability was measured using the dual-color LIVE/DEAD Viability/Cytotoxicity Kit following the manufacturer's instruction.

The subject of series [3] is HeLa cells. In words: Cancer cell viability upon treatment with cytochrome c (LIVE/DEAD). To be noted: Cyt c concentration of 2 μM for cell incubation. The method, then:
as §1

`CCOc1ccc(Nc2ccc(/C(=C3C=C/C(=[N+](/CC)Cc4cccc(S(=O)(=O)[O-])c4)C=C/3C)c3ccc(N(CC)Cc4cccc(S(=O)(=O)[O-])c4)cc3C)cc2)cc1.[Na+]` [Coomassie blue]: in the series on HeLa cells [1], the biocompatibility entry is listed as “biocompatible”.
Consider “Cyt c alone: cytochrome c, intracellular signaling protein for apoptosis, m.w. ~12 kDa, untagged”, for which, in the series on HeLa cells [2], the “intracellular fluorescence of AF488-labeled Cyt c” value is recorded as “minor dotted intracellular green fluorescence”. The cell viability entry in the series on HeLa cells [3] was “no sign of toxicity”.

(Values after patent publication US20220107246A1, “NONCOVALENT TAGS AND RELATED METHODS FOR CYTOSOLIC DELIVERY OF MACROBIOMOLECULES” (University of Washington, priority 2019, published 2022).)
